Assays:
[1] = test system: Plutella xylostella (Diamond back moth) ryanodine receptor, containing the G4946E resistance mutation; assay: In vitro calcium fluorescence assay (Fluo-8 NW, FDSS) in human embryonic kidney cells expressing the ryanodine receptor; format: cell-based; settings: table, EC50 (compound)/EC50 (cyantraniliprole), G4946E RyR in HEK cells
Procedure: Human embryonic kidney cells expressing the Plutella xylostella (Diamond back moth) ryanodine receptor, containing the G4946E resistance mutation, are loaded with Fluo-8 No Wash (NW) calcium-sensitive dye which responds by fluorescence to a change in intracellular calcium (e.g. stimulated by activation of ryanodine receptor). Test compounds are added in 10 rates to a 384-well plate containing dye-loaded cells and the fluorescent signal is measured using the Hamamatsu FDSS (Functional Drug Screening system). Dose-response curves are plotted to estimate the EC50. EC50 are normalized against an in-assay reference standard (cyantraniliprole) to address inter-assay variability. The ratio for a given compound is then obtained by the following formula:
REC50=EC50 (compound)/EC50 (cyantraniliprole).

[2] = test system: Resistant Plutella xylostella R1 (multi-resistant larvae having the G4946E resistance mutation); assay: Resistant Plutella xylostella R1 (Diamond back moth) larvicide L3, feeding/contact, sprayed Chinese cabbage leaves; format: in vivo; settings: for pest or weed control at 50 µg/mL: Plutella xylostella, 96 h, read-out: control of the resistant strain of Plutella xylostella R1
Procedure: Resistant Plutella xylostella R1 (Diamond back moth) larvicide L3, feeding/contact Chinese cabbage plants were sprayed with diluted test solutions in an application chamber. Cut off leaves were placed into petri dishes with wetted filter paper and infested 1 day after application with 10 L3 multi-resistant Plutella xylostella larvae having the G4946E resistance mutation.
Samples were assessed 4 days after infestation for mortality and growth regulation.
Chlorantraniliprole was used as standard and a resistance factor of 146 was obtained for this strain.
Plutella xylostella resistant strain R1 originally collected from Taiwan in 2012 that carries the RyR mutation G4946E conferring resistance to diamides. The strain is reared on cabbage plants (Brassica aleracea) and selected approximately every two weeks with chlorantraniliprole.

[3] = test system: Resistant Plutella xylostella R4 (carries the RyR mutation G4946E); assay: Resistant Plutella xylostella R4 (Diamond back moth) larvicide L1, feeding/contact, artificial diet in 24-well plates; format: in vivo; settings: for pest or weed control at 50 µg/mL: Plutella xylostella, 192 h, read-out: control of the resistant strain of Plutella xylostella R4
Procedure: Resistant Plutella xylostella R4 (Diamond back moth) larvicide L1, feeding/contact 24-well microtiter plates with artificial diet were treated with aqueous test solutions prepared from 10′000 ppm DMSO stock solutions by pipetting. After drying, around 30 Plutella eggs were pipetted through a plastic stencil onto a gel blotting paper and the plate was closed with it. The samples were assessed for mortality in comparison to untreated samples 8 days after infestation.
Chlorantraniliprole was used as standard and a resistance factor of 242 was obtained for this strain
Plutella xylostella resistant strain R4 originated in the lab in 2021 from crossing the R1 strain with a lab-reared susceptible P. xylostella strain (SUS). R4 can be reared and tested on artificial diet and also carries the RyR mutation G4946E conferring resistance to diamides. The strain is selected approximately every two weeks with chlorantraniliprole. The following compounds, according to the present invention, gave at least 80% control of the resistant strain of Plutella xylostella R4 at 50 ppm or below: P11, P18, P26, P31, P33, P34, P36, P38, P42, P43, P46, P49, P50, P52, P56, P58, P60, P61, P63, P64, P65, P66, P67, P73, P76, P84, P97, P99, P102, P105.

Row | melting point | Structure (SMILES) | REC50 (Compound of the invention) [1] | further results
1 | 109 to 112 °C | Cc1cc(C#N)cc(C(N)=O)c1NC(=O)c1cc(COCc2ccc(Cl)cc2)nn1-c1ncccc1Cl [Compound P12, N-(2-carbamoyl-4-cyano-6-methyl-phenyl)-5-[(4-chlorophenyl)methoxymethyl]-2-(3-chloro-2-pyridyl)pyrazole-3-carboxamide] | – | –
2 | 190 to 195 °C | Cc1cc(Br)cc(C(N)=O)c1NC(=O)c1cc(Cn2cc(C(F)(F)F)nn2)nn1-c1ncccc1Cl [Compound P35, N-(4-bromo-2-carbamoyl-6-methyl-phenyl)-2-(3-chloro-2-pyridyl)-5-[[4-(trifluoromethyl)triazol-1-yl]methyl] pyrazole-3-carboxamide] | – | –
3 | 185 to 190 °C | NC(=O)c1cc(Br)cc(Cl)c1NC(=O)c1cc(Cn2ncc(C(F)(F)F)n2)nn1-c1ncccc1Cl [Compound P37, N-(4-bromo-2-carbamoyl-6-chloro-phenyl)-2-(3-chloro-2-pyridyl)-5-[[4-(trifluoromethyl)triazol-2-yl]methyl]pyrazole-3-carboxamide] | – | –
4 | > 250 °C | Cc1cc(Br)cc(C(N)=O)c1NC(=O)c1cc(I)nn1-c1ncccc1Cl [Compound P39, N-(4-bromo-2-carbamoyl-6-methyl-phenyl)-2-(3-chloro-2-pyridyl)-5-iodo-pyrazole-3-carboxamide] | – | –
5 | 110 to 115 °C | NC(=O)c1cc(Br)cc(F)c1NC(=O)c1cc(Cn2nnc(C(F)(F)F)n2)nn1-c1ncccc1Cl [Compound P41, N-(4-bromo-2-carbamoyl-6-fluoro-phenyl)-2-(3-chloro-2-pyridyl)-5-[[5-(trifluoromethyl)tetrazol-2-yl]methyl]pyrazole-3-carboxamide] | – | –
6 | 205 to 210 °C | COc1cc(C(=O)Nc2c(Br)cc(Cl)cc2C(N)=O)n(-c2ncccc2Cl)n1 [Compound P55, N-(2-bromo-6-carbamoyl-4-chloro-phenyl)-2-(3-chloro-2-pyridyl)-5-methoxy-pyrazole-3-carboxamide] | – | –
7 | 180 to 185 °C | Cc1cc(Cl)cc(C(N)=O)c1NC(=O)c1cc(CC#N)nn1-c1ncccc1Cl [Compound P70, N-(2-carbamoyl-4-chloro-6-methyl-phenyl)-2-(3-chloro-2-pyridyl)-5-(cyanomethyl)pyrazole-3-carboxamide] | – | –
8 | 225 to 230 °C | Cc1cc(Cl)cc(C(N)=O)c1NC(=O)c1cc(C2(C#N)CC2)nn1-c1ncccc1Cl [Compound P72, N-(2-carbamoyl-4-chloro-6-methyl-phenyl)-2-(3-chloro-2-pyridyl)-5-(1-cyanocyclopropyl)pyrazole-3-carboxamide] | – | –
9 | 175 to 180 °C | CSCc1cc(C(=O)Nc2c(C)cc(Cl)cc2C(N)=O)n(-c2ncccc2Cl)n1 [Compound P79, N-(2-carbamoyl-4-chloro-6-methyl-phenyl)-2-(3-chloro-2-pyridyl)-5-(methylsulfanylmethyl)pyrazole-3-carboxamide] | – | –

Further lines, the compound ahead of its results:

Row | Structure (SMILES) | melting point | REC50 (Compound of the invention) [1] | further results
10 | NC(=O)c1cc(Br)cc(Cl)c1NC(=O)c1cc(Cn2cc(C(F)(F)F)nn2)nn1-c1ncccc1Cl | 135 to 140 °C | – | –
11 | NC(=O)c1cc(Cl)cc(Br)c1NC(=O)c1cc(Cn2cc(C(F)(F)F)nn2)nn1-c1ncccc1Cl | > 250 °C | – | –
12 | Cc1cc(I)cc(C(N)=O)c1NC(=O)c1cc(C(F)F)nn1-c1ncccc1Cl | 155 to 160 °C | – | –
13 | Cc1cc(Cl)cc(C(N)=O)c1NC(=O)c1cc(C2(F)CC2)nn1-c1ncccc1Cl | 225 to 230 °C | – | –
14 | Cc1cc(Cl)cc(C(N)=O)c1NC(=O)c1cc(C[S+](C)[O-])nn1-c1ncccc1Cl (centres unmarked) | 125 to 130 °C | – | –
15 | Cc1cc(Cl)cc(C(N)=O)c1NC(=O)c1cc(Br)nn1-c1ncccn1 | 187 to 198 °C | – | –
16 | Cc1cc(Cl)cc(C(N)=O)c1NC(=O)c1cc(CS(C)(=O)=O)nn1-c1ncccc1Cl | 140 to 145 °C | – | –
17 | COCc1cc(C(=O)Nc2c(C)cc(Cl)cc2C(N)=O)n(-c2ncccc2Cl)n1 | 225 to 230 °C | – | –
18 | CNC(=O)c1cc(Cl)cc(C)c1NC(=O)c1cc(Br)nn1-c1ncccc1Cl [Chlorantraniliprole, chlorantraniliprole, reference compound] | – | – | REC50 (Comparative compound) ([1]; secondary amide analogue): 0.35; resistance factor ([2]; strain R1, chlorantraniliprole used as standard): 146; resistance factor ([3]; strain R4, chlorantraniliprole used as standard): 242
19 | Cc1cc(Cl)cc(C(N)=O)c1NC(=O)c1cc(COCc2ccc(Cl)cc2)nn1-c1ncccc1Cl [Compound P5, N-(2-carbamoyl-4-chloro-6-methyl-phenyl)-5-[(4-chlorophenyl)methoxymethyl]-2-(3-chloro-2-pyridyl)pyrazole-3-carboxamide] | 174 to 176 °C | 0.31 | –
20 | Cc1cc(Br)cc(C(N)=O)c1NC(=O)c1cc(C(F)(F)F)nn1-c1ncccc1Cl [Compound P26, N-(4-bromo-2-carbamoyl-6-methyl-phenyl)-2-(3-chloro-2-pyridyl)-5-(trifluoromethyl)pyrazole-3-carboxamide] | – | 0.19 | pest or weed control at 50 µg/mL [2]: ≥ 80%; pest or weed control at 50 µg/mL [3]: ≥ 80%
21 | Cc1cc(C#N)cc(C(N)=O)c1NC(=O)c1cc(C(F)(F)F)nn1-c1ncccc1Cl [Compound P31, N-(2-carbamoyl-4-cyano-6-methyl-phenyl)-2-(3-chloro-2-pyridyl)-5-(trifluoromethyl)pyrazole-3-carboxamide] | – | 0.28 | pest or weed control at 50 µg/mL [2]: ≥ 80%; pest or weed control at 50 µg/mL [3]: ≥ 80%
22 | NC(=O)c1cc(Cl)cc(Cl)c1NC(=O)c1cc(Br)nn1-c1ncc(Cl)cc1Cl [Compound P33, 5-bromo-N-(2-carbamoyl-4,6-dichloro-phenyl)-2-(3,5-dichloro-2-pyridyl) pyrazole-3-carboxamide] | – | 0.31 | pest or weed control at 50 µg/mL [2]: ≥ 80%; pest or weed control at 50 µg/mL [3]: ≥ 80%
23 | NC(=O)c1cc(Cl)cc(Br)c1NC(=O)c1cc(Br)nn1-c1ncccc1Cl [Compound P34, 5-bromo-N-(2-bromo-6-carbamoyl-4-chloro-phenyl)-2-(3-chloro-2-pyridyl) pyrazole-3-carboxamide] | – | 0.18 | pest or weed control at 50 µg/mL [2]: ≥ 80%; pest or weed control at 50 µg/mL [3]: ≥ 80%
24 | COc1cc(C(=O)Nc2c(C)cc(Br)cc2C(N)=O)n(-c2ncccc2Cl)n1 [Compound P45, N-(4-bromo-2-carbamoyl-6-methyl-phenyl)-2-(3-chloro-2-pyridyl)-5-methoxy-pyrazole-3-carboxamide] | 210 to 215 °C | 0.24 | –
25 | COc1cc(C(=O)Nc2c(Cl)cc(Br)cc2C(N)=O)n(-c2ncccc2Cl)n1 [Compound P47, N-(4-bromo-2-carbamoyl-6-chloro-phenyl)-2-(3-chloro-2-pyridyl)-5-methoxy-pyrazole-3-carboxamide] | 160 to 165 °C | 0.61 | –
26 | Cc1cc(I)cc(C(N)=O)c1NC(=O)c1cc(Br)nn1-c1ncccc1Cl [Compound P63, 5-bromo-N-(2-carbamoyl-4-iodo-6-methyl-phenyl)-2-(3-chloro-2-pyridyl) pyrazole-3-carboxamide] | – | 0.19 | pest or weed control at 50 µg/mL [2]: ≥ 80%; pest or weed control at 50 µg/mL [3]: ≥ 80%
27 | Cc1cc(C#N)cc(C(N)=O)c1NC(=O)c1cc(Cn2nnc(-c3ccc(C(F)(F)F)cc3)n2)nn1-c1ncccc1Cl [Compound P67, N-(2-carbamoyl-4-cyano-6-methyl-phenyl)-2-(3-chloro-2-pyridyl)-5-[[5-[4-(trifluoromethyl)phenyl]tetrazol-2-yl]methyl]pyrazole-3-carboxamide] | – | 0.63 | pest or weed control at 50 µg/mL [2]: ≥ 80%; pest or weed control at 50 µg/mL [3]: ≥ 80%
28 | Cc1cc(Cl)cc(C(N)=O)c1NC(=O)c1cc(C2CC2)nn1-c1ncccc1Cl [Compound P76, N-(2-carbamoyl-4-chloro-6-methyl-phenyl)-2-(3-chloro-2-pyridyl)-5-cyclopropyl-pyrazole-3-carboxamide] | – | 0.42 | pest or weed control at 50 µg/mL [2]: ≥ 80%; pest or weed control at 50 µg/mL [3]: ≥ 80%

— patent US20240308988A1, “Method For Controlling Diamide Resistant Pests and Compounds Therefor” (priority 2021, published 2024)
